Read-outs that look alike come from different tables or passages of the source.
Columns and labels:
[1] = Solubility of bases in propylene glycol monomethyl ether acetate (shaken overnight, visual inspection); format: physicochemical; conditions: for Solubility, 0.2 wt. % in PGMEA: 0.2 wt. % solution in propylene glycol monomethyl ether acetate, shaken ~20 hours at room temperature; for Solubility, 0.2 wt. % in PGMEA / Solubility, 0.1 wt. % in PGMEA: visual inspection; for Solubility, 0.1 wt. % in PGMEA: diluted to 0.10 wt. % in propylene glycol monomethyl ether acetate; for Solubility in the solvent of the photoresist (propylene glycol monomethyl ether acetate): concentration not given
Description: Several bases were evaluated for solubility in propylene glycol monomethyl ether acetate, the most commonly used solvent in photoresist compositions. A 0.2 wt. % solution of each base was made with propylene glycol monomethyl ether acetate in glass vials. The vials were then placed on a shaker and allowed to shake overnight (˜20 hours) at room temperature. The vials were then visually inspected. If the vials were clear without any haze, cloudiness or solids or crystals at the bottom of the vial, then the base was considered soluble in propylene glycol monomethyl ether acetate. If the vials had haze, cloudiness or solids or crystals at the bottom of the vial, the base was considered not soluble in propylene glycol monomethyl ether acetate. For those vials which contained base at 0.2 wt. % and were considered not soluble, additional propylene glycol monomethyl ether acetate was added to dilute the solution to 0.15 wt. %, or 0.10 wt. %. The diluted vials were then evaluated as discussed above. No further dilutions were made beyond 0.10 wt. %.

[2] = Solubility of bases in the antireflective coating solvent 4-hydroxy-4-methyl-2-pentanone; format: physicochemical
From the text: For this experiment, base A is aminophylline, which is considered an insoluble base in the solvent of the photoresist (in this experiment, propylene glycol monomethyl ether acetate) but soluble in the solvent of the antireflective coating (in this experiment, 4-hydroxy-4-methyl-2-pentanone); base B is tridodecylamine, which is soluble in both the solvent of the photoresist (in this experiment, propylene glycol monomethyl ether acetate) and the solvent of the antireflective coating (in this experiment, 4-hydroxy-4-methyl-2-pentanone). The bases were evaluated alone or as mixtures in the antireflective coatings. The antireflective coatings were prepared using a co-polymer of benzyl methacrylate—mevalonic lactone methacrylate. The photoacid generator (PAG) was triphenylsulfonium nonaflate, and the aforementioned base(s) and 4-hydroxy-4-methyl-2-pentanone as the solvent completed the antireflective coating formulations. The PAG content was kept at 1.7 wt. % of total solids of the antireflective coating formulations and the antireflective coating formulations were 1.65% total solids.

SMILES | Solubility, 0.2 wt. % in PGMEA [1] | Solubility, 0.1 wt. % in PGMEA [1] | Solubility in the solvent of the photoresist (propylene glycol monomethyl ether acetate) [1] | Solubility in the solvent of the antireflective coating (4-hydroxy-4-methyl-2-pentanone) ([2]; concentration not given) | Solubility in the solvent of the antireflective coating (4-hydroxy-4-methyl-2-pentanone) [2]
Nc1ncnc2nc[nH]c12 [Adenine] | Not soluble | Not soluble |  |  | 
Cn1c(=O)c2[nH]cnc2n(C)c1=O [Aminophylline, reference compound] | Not soluble | Not soluble | insoluble | soluble | 
Cn1c(=O)c2[nH]c(Cl)nc2n(C)c1=O [8-Chlorotheophyllline] | Not soluble | Not soluble |  |  | 
c1ncc2[nH]cnc2n1 [Purine] | Not soluble | Not soluble |  |  | 
CCCCCCCCCCCCN(CCCCCCCCCCCC)CCCCCCCCCCCC [tridodecylamine, reference compound] |  |  | soluble |  | soluble
Nc1nc(N)c2[nH]cnc2n1 [2,6-Diaminopurine] | Not soluble | Not soluble |  |  | 
Nc1nc2nc[nH]c2c(=O)[nH]1 [Guanine] | Not soluble | Not soluble |  |  | 
Cn1c(=O)c2[nH]cnc2n(C)c1=O [Theophylline, reference compound] | Not soluble | Soluble |  |  | 
CN(C)c1ncnc2nc[nH]c12 [6-(Dimethylamino)purine] | Not soluble | Soluble |  |  | 

— patent publication US20080032229A1, “BOTTOM ANTIREFLECTIVE COATINGS” (priority 2003, published 2008)
